# Experimental data from US5905089A, “Use of sesquiterpene lactones for treatment of severe inflammatory disorders” (Board of Supervisors of Louisiana State University and …, priority 1998, dated 1999).
# Entries after “also recorded” stand apart in the source; their conditions may differ.
# Key:
# TNFα = test: LPS-induced TNFα production in alveolar macrophages (bioassay using L929 cells); format: cell-based, Rat (Sprague-Dawley); conditions: LPS 10 μg/ml, 16h, FIG. 2
# Description: (§1) Rat (Sprague-Dawley) alveolar macrophages were collected by broncho-alveolar lavage as described by Lee et al., J. Biol. Chem., vol. 267, pp. 25934-25938 (1992). The murine macrophage cell line RAW 264.7 (ATCC no. TIB-71) was cultured in Dubecco's modified Eagle's medium (DMEM) containing 10% heat-inactivated fetal bovine serum (FBS, Intergen). For the cyclooxygenase activity assay, cells were seeded in 24 well plates, and after near-confluency, cells were treated with aspirin (250 μM) for 2.5h to inactivate endogenous cyclooxygenase. […] COX activity was determined by measuring prostaglandin E2 concentrations in cells incubated with arachidonic acid (30 μM) for 10 minutes as described in Lee et al. (1992).
# Recovered COX activity in cells pretreated with aspirin reflected de novo synthesized COX-2. Alveolar macrophages pretreated with aspirin were incubated with LPS (10 μg/ml) and various concentrations of parthenolide for 16h. The activity of de novo synthesized COX-2 was determined by measuring the levels of PGE2 produced from exogenous arachidonic acid. Activity of TNFα was determined by bioassay using L929 cells as described by Aggarwal et al., J. Biol. Chem., vol. 260, pp. 2345-2354 (1985). […] Values in FIG. 2 are the means of triplicate samples for TNFα and duplicate samples for PGE2.
# COX-2 [1] = test: COX-2 protein expression in LPS-stimulated alveolar macrophages (immunoblot); format: cell-based, Rat (Sprague-Dawley); conditions: 16h, FIG. 3A
# Description: as §1
# (§2) The protein levels of COX-2 and GAPDH were assessed by Western blot analysis using polyclonal antibodies as described in Lee et al. (1992). Polyclonal antibodies for IL-1α and JNK-1 were purchased from Genzyme and Santa Cruz Biotech, respectively.
# In FIG. 3A, alveolar macrophages were incubated with LPS and various concentrations of parthenolide for 16h. Solubilized proteins were analyzed by COX-2, IL-1α or GAPDH immunoblotting. FIG. 3A is a representative immunoblot of more than five different analyses. Data are shown for various concentrations of both parthenolide (PTN) and herbimycin A (HER). […]
# COX-2 mRNA = test: Steady state levels of COX-2 mRNA in LPS-stimulated alveolar macrophages (RNase protection assay); format: cell-based, Rat (Sprague-Dawley); conditions: 2h, FIG. 3B
# Description: as §1
# Total cellular RNA was isolated by TRIzoL reagent (Gibco, BRL). The RNase protection assay was performed as described in Chanmugan et al. (1995).
# In FIG. 3B, alveolar macrophages were incubated with LPS in the presence of various concentrations of parthenolide for 2h. Steady state levels of mRNA were determined by RNase protection assay. In FIG. 4, alveolar macrophages were incubated with LPS in presence of 1 μg/ml of parthenolide for specified time periods. The concentrations of mRNA were determined by RNase protection assay.
# [2] = system: tyrosine phosphorylation of various proteins; test: LPS-stimulated tyrosine phosphorylation of various proteins in RAW 264.7 cells (antiphosphotyrosine immunoblot); format: cell-based, murine; conditions: 3h pretreatment, LPS 1 μg/ml 30 min; FIG. 5A
# Description: as §1
# (§3) This detection technique was carried out essentially as described in Chanmugan et al. (1995) using 4G10 monoclonal antiphosphotyrosine antibody (UBI) and the ECL detection system (Amersham).
# (§4) Parthenolide suppressed LPS-stimulated tyrosine phosphorylation of various proteins in RAW 264.7 cells as assessed by antiphosphotyrosine immunoblot, depicted in FIG. 5A. This inhibition was correlated with the suppressed expression of COX-2 and IL-1α. […] Therefore, the extent of tyrosine phosphorylation of JNK-1 was assessed by the electrophoretic mobility shift of phosphorylated JNK-1 as shown in FIG. 5B. […]
# [3] = system: c-Jun N-terminal kinase-1 (JNK-1); test: Tyrosine phosphorylation of JNK-1 in RAW 264.7 cells (electrophoretic mobility shift immunoblot); format: cell-based, murine; conditions: 3h pretreatment, LPS 1 μg/ml 30 min; FIG. 5B
# Description: as §1, §2, §4
# MAPKs = test: Tyrosine phosphorylation / activation of MAPKs in RAW 264.7 cells; format: cell-based, murine; conditions: 3h pretreatment (herbimycin A 0.5 μg/ml), LPS 1 μg/ml 30 min
# Description: as §1, §3
# (§5) Parthenolide suppressed LPS-stimulated tyrosine phosphorylation of various proteins in RAW 264.7 cells as assessed by antiphosphotyrosine immunoblot, depicted in FIG. 5A. This inhibition was correlated with the suppressed expression of COX-2 and IL-1α. RAW 264.7 cells were pretreated with parthenolide in various concentrations or with herbimycin A (0.5 μg/ml) for 3h, and then stimulated with LPS (1 μg/ml) in the presence of the inhibitors for 30 min. […] Therefore, the extent of tyrosine phosphorylation of JNK-1 was assessed by the electrophoretic mobility shift of phosphorylated JNK-1 as shown in FIG. 5B. Parthenolide inhibited tyrosine phosphorylation of JNK-1. Another protein tyrosine kinase inhibitor, herbimycin A ([…]), inhibited tyrosine phosphorylation of the MAPK subfamily.
# The mechanism by which parthenolide inhibits protein tyrosine phosphorylation is not currently known. It has been speculated that the tyrosine kinase inhibitor herbimycin A inactivates p60^v-src kinase by irreversibly binding to the sulphydryl (SH) groups of p60^v-src kinase. Y. Uehara et al., Biochem. Biophys. Res. Commun., vol. 163, pp. 803-809 (1989). The inactivation by herbimycin may occur through conjugation between highly polarized double bonds in the benzoquinone moiety of herbimycin A and the SH group of sulphydryl compounds. Without wishing to be bound by this theory, the α-methylenebutyrolactone in parthenolide may interact with biological nucleophiles such as sulphydryl groups. Indeed, pretreating cells with sulphydryl compounds abrogated the inhibitory effect of parthenolide on LPS-induced activation of MAPKs as shown in FIG. 6A. In FIG. 6, RAW 264.7 cells were pretreated with parthenolide (1 μg/ml) in the presence of DTT (dithiothreitol, 100 μM), 2-ME (2-mercaptoethanol, 50 μM), or Cys (L-cysteine, 150 μM), and were then stimulated with LPS (1 μg/ml). Cells were incubated for 30 min for antiphosphotyrosine immunoblot analysis (FIG. 6A) and 8h for COX-2 and IL-1α Western blot analyses (FIG. 6B). […] Whether parthenolide inhibits protein tyrosine phosphorylation by directly inhibiting PTKs or by inhibiting other target protein(s) that affect the activity of PTKs is not currently known.
# ERK-2 = test: Kinase activity of ERK-2 in RAW 264.7 cells (in-gel kinase assay, MBP substrate); format: cell-based, murine; conditions: 3h pretreatment, LPS 1 μg/ml 30 min; FIG. 5
# Description: as §1
# This assay was performed according to the method described by Kameshita et al., Anal. Biochem., vol. 183, pp. 139-143 (1989) using myelin basic protein (MBP) as a substrate.
# as §4
# COX-2 [4] = test: COX-2 expression in LPS-stimulated RAW 264.7 cells (Western blot); format: cell-based, murine; conditions: LPS 1 μg/ml; FIG. 5D
# Description: as §1, §2, §5
# The mechanism by which parthenolide inhibits protein tyrosine phosphorylation is not currently known. It has been speculated that the tyrosine kinase inhibitor herbimycin A inactivates p60^v-src kinase by irreversibly binding to the sulphydryl (SH) groups of p60^v-src kinase. Y. Uehara et al., Biochem. Biophys. Res. Commun., vol. 163, pp. 803-809 (1989). The inactivation by herbimycin may occur through conjugation between highly polarized double bonds in the benzoquinone moiety of herbimycin A and the SH group of sulphydryl compounds. Without wishing to be bound by this theory, the α-methylenebutyrolactone in parthenolide may interact with biological nucleophiles such as sulphydryl groups. Indeed, pretreating cells with sulphydryl compounds abrogated the inhibitory effect of parthenolide on LPS-induced activation of MAPKs as shown in FIG. 6A. […]
# [5] = system: Nuclear Factor-kB (NF-kB); test: NF-kB activated by LPS in RAW 264.7 cells (degradation of IKBα); format: cell-based, murine
# Source text: Parthenolide inhibits Nuclear Factor--kB (NF-kB) transcription factor that has been activated by LPS in the murine macrophage cell line (RAW 264.7) as assessed by the degradation of the protein, IKBα. Activated NF-kB is known to induce the expression of many early response genes including inducible nitric oxide synthetase, cyclooxygenase, and chemokines that are implicated in acute inflammatory responses.
smiles,measurement,setting,value
"C=C1C(=O)O[C@H]2[C@H]1CC/C(C)=C/CC[C@@]1(C)O[C@@H]21 [Compound 1, Parthenolide]","IC50, suppression of LPS-induced TNFα production",TNFα,0.1 µg/mL
same,expression of COX-2 protein,COX-2 [1],dose-dependent inhibition
same,steady state levels of COX-2 mRNA,COX-2 mRNA,dose-dependent inhibition; also recorded: suppression
same,LPS-stimulated tyrosine phosphorylation of various proteins,[2],suppressed
same,tyrosine phosphorylation of JNK-1,[3],inhibited
same,tyrosine phosphorylation of the MAPK subfamily,MAPKs,most dramatic inhibition
same,kinase activity of ERK-2,ERK-2,dose-dependent inhibition
same,expression of COX-2 in RAW 264.7 cells,COX-2 [4],suppressed
same,inhibition of NF-kB transcription factor activated by LPS,[5],inhibits
